Assays:
[1] = test system: healthy adult male subjects; experiment: Phase 1a trial of GLP-1/FDKP inhalation powder: insulin, glucose and glucagon response; format: in vivo, human; conditions: 1.5 mg GLP-1; two of the six subjects; value that defines hypoglycemia
Description: Dropouts were not replaced. These dosages assumed a body mass of 70 kg.

[2] = test system: healthy adult male subjects
Description: Additional pulmonary safety and pharmacokinetic parameters were also evaluated. Pulmonary safety as expressed by the incidence of pulmonary and other adverse events and changes in pulmonary function between Visit 1 (Screening) and Visit 3 (Follow-up) was studied. […] Clinical trial endpoints were based on a comparison of the following pharmacological and safety parameters determined in the trial subject population. Primary endpoints included the incidence and severity of reported AEs, including cough and dyspnea, nausea and/or vomiting, as well as changes from screening in vital signs, clinical laboratory tests and physical examinations.

[3] = literature evaluation; cited from earlier work
[4] = Deacon et al., cited from earlier work
male ZDF rats = experiment: Food consumption after oxyntomodulin/FDKP powder; format: in vivo, rat; conditions: 0.15-0.9 mg oxyntomodulin as 30% powder, rats fasted 24 hr
Description: Male ZDF rats (10/group) were assigned to one of four groups.
Rats were allowed to eat after receiving the experimental dose. A predetermined amount of food was given to the rats and the amount of food the rats consumed was measured at various times after the start of the experiment.

| Molecule | glucose concentration lowered by GLP-1 [1] | time for plasma active GLP-1 to fall to the physiological range (after inhalation of GLP-1/FDKP powder) | metabolite peaks, intravenous compared to pulmonary administration (at comparable active concentrations) | subjects reporting symptoms of nausea, profuse sweating or vomiting ([2]; all doses, pulmonary) | inhibition of gastric emptying ([2]; pulmonary dry powder, data not shown) | active GLP-1 concentration in blood plasma above which profuse sweating, nausea and vomiting are typically observed [3] | degradation in the liver [4] | GLP-1 instantaneously metabolized in the vein ([4]; intravenous, pigs) | GLP-1 metabolized in the deoxygenated blood in the lung ([4]; intravenous, pigs) | extraction by the portal bed ([4]; intravenous, pigs) | duration of significantly less food consumed than control rats (male ZDF rats) |
| --- | --- | --- | --- | --- | --- | --- | --- | --- | --- | --- | --- |
| CC[C@H](C)[C@H](NC(=O)[C@H](Cc1ccccc1)NC(=O)[C@H](CCC(=O)O)NC(=O)[C@H](CCCCN)NC(=O)[C@H](C)NC(=O)[C@H](C)NC(=O)[C@H](CCC(N)=O)NC(=O)CNC(=O)[C@H](CCC(=O)O)NC(=O)[C@H](CC(C)C)NC(=O)[C@H](Cc1ccc(O)cc1)NC(=O)[C@H](CO)NC(=O)[C@H](CO)NC(=O)[C@@H](NC(=O)[C@H](CC(=O)O)NC(=O)[C@H](CO)NC(=O)[C@@H](NC(=O)[C@H](Cc1ccccc1)NC(=O)[C@@H](NC(=O)CNC(=O)[C@H](CCC(=O)O)NC(=O)[C@H](C)NC(=O)[C@@H](N)Cc1c[nH]cn1)[C@@H](C)O)[C@@H](C)O)C(C)C)C(=O)N[C@@H](C)C(=O)N[C@@H](Cc1c[nH]c2ccccc12)C(=O)N[C@@H](CC(C)C)C(=O)N[C@H](C(=O)N[C@@H](CCCCN)C(=O)NCC(=O)N[C@@H](CCCNC(=N)N)C(N)=O)C(C)C [GLP-1, GLP-1(7-36)amide] | below 3.5 mmol/L | ≤ 9 min | 8-9 fold greater | None of the subjects | lack inhibition of gastric emptying | exceed 100 pmol/L | 45% | 40% | 10% | 20% |  |
| oxyntomodulin |  |  |  |  |  |  |  |  |  |  | up to 6 hr |
